# Test results from patent US20260240839A1, “Pharmaceutical composition of tetramethylpyrazine nitrone for injection and a method for manufacture thereof” (GUANGZHOU MAGPIE PHARMACEUTICALS CO., LTD., priority 2022, published 2026).
# Assay: Solution stability of tetramethylpyrazine nitrone in different solvents at 25° C.
# Type: physicochemical
# Settings: for Total impurities / Content: 25° C.
# Description: Here, “NA” indicates not measured. “Total impurities” at 0 hour refer to that detected when API of tetramethylpyrazine nitrone is just prepared into a solution.
# In 0.1 M HCl, the stability of tetramethylpyrazine nitrone compounds is low, and they begin to degrade as soon as they form a solution. After 3 hours, they completely degrade, and the total content of related substances reaches 100%.
smiles,measurement,setting,value
Cc1nc(C)c(/C=[N+](\[O-])C(C)(C)C)nc1C [tetramethylpyrazine nitrone],Total impurities,"0.1M HCl, 0 h",59.28%
same,Content,"0.1M HCl, 3 h",0%
same,Total impurities,"0.1M HCl, 3 h",100%
same,Content,"0.1M HCl, 24 h",0%
same,Total impurities,"0.1M HCl, 24 h",100%
same,Total impurities,"0.1M NaOH, 0 h",17.78%
same,Content,"0.1M NaOH, 3 h",81.8%
same,Total impurities,"0.1M NaOH, 3 h",31.38%
same,Content,"0.1M NaOH, 24 h",56.54%
same,Total impurities,"0.1M NaOH, 24 h",49.23%
same,Content,"Pure water, 0 h",100%
same,Total impurities,"Pure water, 0 h",0.27%
same,Content,"Pure water, 3 h",99.71%
same,Total impurities,"Pure water, 3 h",0.39%
same,Content,"Pure water, 24 h",98.54%
same,Total impurities,"Pure water, 24 h",1.16%
same,Stability in solution,buffer solutions ranging from pH 6.0 to pH 7.4 at 25° C.,relatively stable
same,Total impurities,"pH 4.5 Acetate buffer, 0 h",8.36%
same,Content,"pH 4.5 Acetate buffer, 3 h",83.64%
same,Total impurities,"pH 4.5 Acetate buffer, 3 h",23.6%
same,Content,"pH 4.5 Acetate buffer, 24 h",60.56%
same,Total impurities,"pH 4.5 Acetate buffer, 24 h",44.44%
same,Content,"pH 6.0 phosphate buffer, 0 h",100%
same,Total impurities,"pH 6.0 phosphate buffer, 0 h",0.33%
same,Content,"pH 6.0 phosphate buffer, 3 h",98.39%
same,Total impurities,"pH 6.0 phosphate buffer, 3 h",0.44%
same,Content,"pH 6.0 phosphate buffer, 6 h",98.65%
same,Total impurities,"pH 6.0 phosphate buffer, 6 h",0.9%
same,Content,"pH 6.0 phosphate buffer, 24 h",96.62%
same,Total impurities,"pH 6.0 phosphate buffer, 24 h",2.19%
same,Content,"pH 6.4 Phosphate buffer, 0 h",100%
same,Total impurities,"pH 6.4 Phosphate buffer, 0 h",0.31%
same,Content,"pH 6.4 Phosphate buffer, 3 h",98.85%
same,Total impurities,"pH 6.4 Phosphate buffer, 3 h",0.4%
same,Content,"pH 6.4 Phosphate buffer, 24 h",97.78%
same,Total impurities,"pH 6.4 Phosphate buffer, 24 h",0.93%
same,Content,"pH 7.4 Phosphate buffer, 0 h",100%
same,Total impurities,"pH 7.4 Phosphate buffer, 0 h",0.47%
same,Content,"pH 7.4 Phosphate buffer, 3 h",100.83%
same,Total impurities,"pH 7.4 Phosphate buffer, 3 h",0.39%
same,Content,"pH 7.4 Phosphate buffer, 24 h",99.92%
same,Total impurities,"pH 7.4 Phosphate buffer, 24 h",1%
same,Stability in solution,solutions with a pH lower than 6.0,low
